{"source": "paper PMC7699892", "about": "“Repositioned Drugs for Chagas Disease Unveiled via Structure-Based Drug Repositioning” (International Journal of Molecular Sciences, 2020)", "key": {"[1]": {"system": "T. cruzi blood trypomastigote (Ninoa strain)", "test": "ex vivo evaluation against blood trypomastigotes, Ninoa strain", "format": "cell-based", "conditions": "Trypanosoma cruzi, 24 h at 4 °C", "excerpt": "(§1) The high-priority hit drugs were subjected to experimental validation in vitro, ex vivo, and in vivo, together with a cytotoxicity assay. Ninoa and INC-5 strains of T. cruzi were used in this study. The Ninoa strain was obtained in 1986 by xenodiagnoses from an acute case of Chagas’ disease in Oaxaca, Mexico, whereas the INC-5 strain was obtained in 1997 from a chronic case of Chagas’ disease in a person in Guanajuato, Mexico.\n(§2) Ex vivo evaluation of different FDA-approved drugs against Trypanosoma cruzi blood trypomastigotes. The ex vivo evaluation of the trypanocidal activity of the FDA-approved drugs was carried out according to the methodology described above. Blood from parasite infected animals was obtained from intracardiac puncture and diluted with phosphate-buffered saline (PBS), pH 7.2, until a concentration of 2 × 10^6 blood trypomastigotes/mL was obtained. From this, 195 µL of blood/well was placed in a 96-well plate and incubated at 4 °C for 24 h with 5 µL of each drug tested at different concentrations (5 µg/mL to […]). […] After incubation, live parasites were counted in a Neubauer chamber and the IC50 was calculated. Three independent experiments by triplicate were performed."}, "[2]": {"system": "T. cruzi blood trypomastigote (INC-5 strain)", "test": "ex vivo evaluation against blood trypomastigotes, INC-5 strain", "format": "cell-based", "conditions": "Trypanosoma cruzi", "excerpt": "as §1, §2"}, "[3]": {"system": "T. cruzi epimastigote (Ninoa strain)", "test": "in vitro evaluation against epimastigotes, Ninoa strain (resazurin)", "format": "cell-based", "conditions": "Trypanosoma cruzi, 48 h at 28 °C", "excerpt": "(§3) The high-priority hit drugs were subjected to experimental validation in vitro, ex vivo, and in vivo, together with a cytotoxicity assay. Ninoa and INC-5 strains of T. cruzi were used in this study. […] In vitro evaluation of different FDA-approved drugs against Trypanosoma cruzi epimastigotes. The epimastigote stage of Ninoa and INC5 strains of T. cruzi were used to evaluated the in vitro trypanocidal activity of different FDA-approved drugs. Both strains were maintained in liver infusion tryptose (LIT) medium, supplemented with 10% fetal bovine serum (FBS) and 0.1% penicillin–streptomycin. They were preserved by transferring 1 × 10^6 parasites/mL into a new culture medium every week. […] All compounds were initially prepared at 10 mg/mL, using dimethyl sulfoxide (DMSO) as diluent. Serial dilutions were performed using complemented LIT medium until concentrations of 100 to 0.46 µg/mL of each drug were obtained. […] After the incubation period, 20 µL of 2.5 mM resazurin solution were added to each well and incubated for 3 h. All assays were carried out in triplicate."}, "[4]": {"system": "T. cruzi epimastigote (INC-5 strain)", "test": "in vitro evaluation against epimastigotes, INC-5 strain (resazurin)", "format": "cell-based", "conditions": "Trypanosoma cruzi, 48 h at 28 °C", "excerpt": "as §3"}, "T. cruzi Ninoa strain": {"system": "T. cruzi Ninoa strain", "test": "in vivo short-term trypanocidal activity (parasitemia) in infected CD1 mice, Ninoa strain", "set-up": "species or system Trypanosoma cruzi in CD1 mice", "method": "(§4) Parasitemia was monitored at 2, 4, 6, and 8 h after administration (see Figure 2).\n(§5) CD1 strain mice, 6–8 weeks old, were used to maintain Ninoa and INC-5 strains of T. cruzi. Animals were given by the University of Science and Arts of Chiapas. To maintain the strains, animals were intraperitoneally inoculated every 14 days with 1 × 10^5 blood trypomastigote, obtained from parasite-infected mice. Parasitemia was monitored every three days by the Pizzi method. For this, 5 µL of blood from the caudal vein of infected mice were deposited on a slide and evenly distributed with an 18 × 18 mm coverslip. Parasite counting was performed by observing 15 microscopic fields using a 40 × objective lens. For the in vivo short term evaluation of the trypanocidal activity of the FDA-approved drugs, six groups of six CD1 mice each with homogeneous weight and parasitemia were used.\n(§6) In vivo short-term evaluation of the trypanocidal activity of the FDA-approved drugs. Six groups of six CD1 female mice were infected with blood trypomastigotes of Ninoa and INC-5 strains following the methodology previously described in Romanha et al. and in Díaz-Chiguer et al.. At day 13 post-infection, when the infected mice reached an average of 5 × 10^6 parasites/mL, a single dose of the FDA-approved drugs at 100 mg/kg body weight was orally administered. Parasitemia was monitored following the Pizzi method at 2, 4, 6, and 8 h post-treatment […] using mineral oil as a vehicle. […] Mice examination was performed as stated in the Norma Official Mexicana (NOM-062-Z00-1999), published on August 2009."}, "T. cruzi INC-5 strain": {"system": "T. cruzi INC-5 strain", "test": "in vivo short-term trypanocidal activity (parasitemia) in infected CD1 mice, INC-5 strain", "set-up": "species or system Trypanosoma cruzi in CD1 mice", "method": "as §4, §5, §6"}, "T. brucei": {"system": "T. brucei", "set-up": "method as in Nenortas et al. 70", "conditions": "ref Nenortas et al. 70; read-out: EC50, active against T. brucei in vitro; cited from earlier work"}, "T. cruzi [5]": {"system": "T. cruzi", "set-up": "method as in per drug in column Reference of Table 2", "conditions": "class of literature evidence of trypanocidal activity; ref per drug in Table 2; cited from earlier work"}, "T. cruzi DHFR": {"target": "T. cruzi DHFR", "set-up": "method as in PMID 12084467", "conditions": "read-out: Ki, inhibitor of T. cruzi DHFR; cited from earlier work"}, "T. cruzi [6]": {"system": "T. cruzi", "set-up": "method as in PMID 25033456", "conditions": "read-out: EC50, inhibition of T. cruzi growth in vitro; cited from earlier work"}, "[7]": {"system": "T. cruzi reverse transcriptase", "set-up": "method as in PMID 8913446", "conditions": "cited from earlier work"}}, "note": "Read-outs that look alike come from different tables or passages of the source. Throughout, for Trypan. Activity: key: ? indicates unknown activity; + indicates indirect evidence of activity; ++ indicates direct evidence of activity.", "data": [{"molecule": "O=C(O)c1cn(C2CC2)c2cc(N3CCNCC3)c(F)cc2c1=O", "note": "[Ciprofloxacin]", "values": [{"measurement": "IC50", "setting": "[1]", "result": "25.7 ± 0.04", "unit": "µM"}, {"measurement": "IC50", "setting": "[2]; ex vivo, INC-5 strain, 24 h at 4 °C, read-out: T.cruzi blood trypomastigote IC50 INC-5", "result": "21.3 ± 0.09", "unit": "µM"}, {"measurement": "IC50", "setting": "[2]; rounded value in the discussion, refers to Table 3, strain not stated, read-out: IC50, inhibitor of T. cruzi trypomastigotes", "result": 21, "unit": "µM"}, {"measurement": "IC50", "setting": "[3]", "result": "> 400", "unit": "µM"}, {"measurement": "IC50", "setting": "[4]", "result": "> 400", "unit": "µM"}, {"measurement": "Parasitemia inhibition percentage over the time, 2 horas Ninoa", "setting": "T. cruzi Ninoa strain; 100 mg/kg oral, 2 horas, Ninoa", "result": 100}, {"measurement": "Parasitemia inhibition percentage over the time, 4 horas Ninoa", "setting": "T. cruzi Ninoa strain; 100 mg/kg oral, 4 horas, Ninoa", "result": 50}, {"measurement": "Parasitemia inhibition percentage over the time, 6 horas Ninoa", "setting": "T. cruzi Ninoa strain; 100 mg/kg oral, 6 horas (first column so headed), Ninoa", "result": 33.3}, {"measurement": "Parasitemia inhibition percentage over the time, 6 horas Ninoa", "setting": "T. cruzi Ninoa strain; 100 mg/kg oral, 6 horas (second, last column so headed), Ninoa", "result": 33.3}, {"measurement": "parasitemia inhibition", "setting": "T. cruzi Ninoa strain; mice infected with Ninoa strain, single oral dose 100 mg/kg, eight hours after administration", "result": 66.7, "unit": "%"}, {"measurement": "Parasitemia inhibition percentage over the time, 2 horas INC-5", "setting": "T. cruzi INC-5 strain; 100 mg/kg oral, 2 horas, INC-5", "result": 100}, {"measurement": "Parasitemia inhibition percentage over the time, 4 horas INC-5", "setting": "T. cruzi INC-5 strain; 100 mg/kg oral, 4 horas, INC-5", "result": 75}, {"measurement": "Parasitemia inhibition percentage over the time, 6 horas INC-5", "setting": "T. cruzi INC-5 strain; 100 mg/kg oral, 6 horas (first column so headed), INC-5", "result": 62.5}, {"measurement": "Parasitemia inhibition percentage over the time, 6 horas INC-5", "setting": "T. cruzi INC-5 strain; 100 mg/kg oral, 6 horas (second, last column so headed), INC-5", "result": 56.2}, {"measurement": "parasitemia inhibition", "setting": "T. cruzi INC-5 strain; mice infected with INC-5 strain, single oral dose 100 mg/kg, eight hours after administration", "result": 43.8, "unit": "%"}, {"measurement": "EC50", "setting": "T. brucei", "result": 52, "unit": "µM"}]}, {"molecule": "CCc1nc(N)nc(N)c1-c1ccc(Cl)cc1", "note": "[Pyrimethamine]", "values": [{"measurement": "Trypan. Activity", "setting": "T. cruzi [5]", "result": "++"}, {"measurement": "Ki", "setting": "T. cruzi DHFR", "result": 0.1, "unit": "µM"}, {"measurement": "EC50", "setting": "T. cruzi [6]", "result": 3.8, "unit": "µM"}]}, {"molecule": "Cc1cn([C@H]2C[C@H](N=[N+]=[N-])[C@@H](CO)O2)c(=O)[nH]c1=O", "note": "[Zidovudine]", "values": [{"measurement": "Trypan. Activity", "setting": "T. cruzi [5]", "result": "++"}, {"measurement": "inhibition of T. cruzi reverse transcriptase", "setting": "[7]", "result": "does not inhibit"}]}]}
